Earlier results in US20250241354A1, “ORAL PRODUCTS” (RAI STRATEGIC HOLDINGS, INC., priority 2024, published 2025).

Details: in words

| SMILES | solubility |
| --- | --- |
| CC(/C=C/C=C(C)/C=C/C(=O)O)=C\C=C\C=C(C)\C=C\C=C(C)\C=C\C(=O)O (stereo in doubt) [norbixin, (2E,4E,6E,8E,10E,12E,14E,16E,18E)-4,8,13,17-tetramethylicosa-2,4,6,8,10,12,14,16,18-nonaenedioic acid] | water-soluble |
| COC(=O)/C=C/C(C)=C\C=C\C(C)=C\C=C\C=C(C)\C=C\C=C(C)\C=C\C(=O)O [bixin, (2E,4E,6E,8E,10E,12E,14E,16Z,18E)-20-methoxy-4,8,13,17-tetramethyl-20-oxoicosa-2,4,6,8,10,12,14,16,18-nonaenoic acid] | soluble in fats and alcohols but insoluble in water |
